Test results: ChEMBL document CHEMBL1123997, “Modeling of beta-adrenoceptors based on molecular electrostatic potential studies of agonists and antagonists” (J Med Chem, 1988)

Key:
[1] = target: T1, Adrenergic receptor beta (Homo sapiens) (UniProt P08588+P07550+P13945)
[2] = target: T1, Adrenergic receptor beta (Homo sapiens); details: filed as antagonist
[3] = target: T1, Adrenergic receptor beta (Homo sapiens); details: filed as antagonist; remark: listed apart in the source
[4] = target: T1, Adrenergic receptor beta (Homo sapiens); remark: listed apart in the source
[5] = target: T1, Adrenergic receptor beta (Homo sapiens); details: filed as agonist
Description: Tested for intrinsic sympathomimetic activity (ISA); Agonist

COc1ccc(CCNC[C@H](O)COc2ccc(-c3nc(C(C)=O)c[nH]3)cc2)cc1OC
ISA [1]: Partial agonist

CC(C)(C)NCC(O)COc1ccccc1C#N (centres undefined)
ISA [1]: Partial agonist

CC(C)(C)NC[C@H](O)COc1cccc2c1CC1(CCCCC1)C2=O
ISA [2]: Antagonist

CC(C)(C)NCC(O)COc1cccc2c1SCCC2 (centres undefined)
ISA [2]: Antagonist

CCN(CC)C(=O)Nc1ccc(OCC(O)CNC(C)(C)C)c(C(C)=O)c1 (centres undefined)
ISA [1]: Partial agonist

CC(C)(C)NCC(O)COc1cccc2c1CCCC2=O (centres undefined)
ISA [3]: Antagonist

CC(C)(C)NCC(O)COc1cccc2c1CC(O)C(O)C2 (centres undefined)
ISA [2]: Antagonist

Cc1cc2c(OCC(O)CNC(C)C)cccc2[nH]1 (centres undefined)
ISA [1]: Partial agonist

COc1ccc(CCNC[C@H](O)COc2ccc(Cc3nc(C(C)=O)c[nH]3)cc2)cc1OC
ISA [2]: Antagonist

CC(C)NCC(O)COc1cccc2[nH]ccc12 (centres undefined)
ISA [4]: Partial agonist

COCCOc1ccc(OC[C@@H](O)CNC(C)C)cc1
ISA [4]: Partial agonist

CCc1cccc2cc(C(O)CNC(C)(C)C)oc12 (centres undefined)
ISA [4]: Partial agonist

NC[C@H](O)c1ccc(O)c(O)c1
ISA [5]: Agonist

CC(C)NCC(O)c1ccc(Cl)c(Cl)c1 (centres undefined)
ISA [4]: Partial agonist
